# Experimental data published in patent publication US9802937B2, “Substituted pyrazolo{4,3-D}pyrimidines as kinase inhibitors” (ORIGENIS GMBH, priority 2011, dated 2017).
# What was measured:
# [1] = molecular target: LRRK2 (Homo sapiens, UniProt Q5S007); assay: LRRK2-LRRK2 G2019S-Assay (LanthaScreen Eu Kinase Binding Assay); settings: 5 nM LRRK2 or their mutants, 10 nM tracer 236, RT 1 h; read-out: LRRK2 Activities: IC50
# In short: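 Kinase (wild type or mutant, 5 nM) mixed with Eu-anti-GST antibody (2 nM), then 10 nM Alexa Fluor 647 tracer 236 added. After 1 h at room temperature, the acceptor/donor (665/615 nm) FRET ratio was measured. IC50 was fitted from concentration–ratio curves.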
# [2] = molecular target: T1, SYK kinase (Homo sapiens, UniProt P43405); assay: SYK Assay (OMNIA KINASE ASSAY, SOX peptide fluorescence); assay type: biochemical; settings: apparent Ki calculated from the IC50 using the Cheng-Prusoff equation; 1 mM ATP, 30° C.; read-out: SYK Activities: Ki
# T1 construct: purchased Invitrogen, Carlsbad
# In short: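 Apparent Ki values are derived by Cheng-Prusoff from IC50s of sigmoidal fits of reaction rate against compound concentration. Rates come from chelation-enhanced SOX fluorescence (λex 360/λem 485 nm, read every 30 s over 30 min) as the kinase phosphorylates 10 µM Omnia Tyr 7 peptide at 30 °C, with 1 mM ATP and 0.2 mM DTT.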
# LRRK2, sequence (Q5S007 970-2527 limits assumed): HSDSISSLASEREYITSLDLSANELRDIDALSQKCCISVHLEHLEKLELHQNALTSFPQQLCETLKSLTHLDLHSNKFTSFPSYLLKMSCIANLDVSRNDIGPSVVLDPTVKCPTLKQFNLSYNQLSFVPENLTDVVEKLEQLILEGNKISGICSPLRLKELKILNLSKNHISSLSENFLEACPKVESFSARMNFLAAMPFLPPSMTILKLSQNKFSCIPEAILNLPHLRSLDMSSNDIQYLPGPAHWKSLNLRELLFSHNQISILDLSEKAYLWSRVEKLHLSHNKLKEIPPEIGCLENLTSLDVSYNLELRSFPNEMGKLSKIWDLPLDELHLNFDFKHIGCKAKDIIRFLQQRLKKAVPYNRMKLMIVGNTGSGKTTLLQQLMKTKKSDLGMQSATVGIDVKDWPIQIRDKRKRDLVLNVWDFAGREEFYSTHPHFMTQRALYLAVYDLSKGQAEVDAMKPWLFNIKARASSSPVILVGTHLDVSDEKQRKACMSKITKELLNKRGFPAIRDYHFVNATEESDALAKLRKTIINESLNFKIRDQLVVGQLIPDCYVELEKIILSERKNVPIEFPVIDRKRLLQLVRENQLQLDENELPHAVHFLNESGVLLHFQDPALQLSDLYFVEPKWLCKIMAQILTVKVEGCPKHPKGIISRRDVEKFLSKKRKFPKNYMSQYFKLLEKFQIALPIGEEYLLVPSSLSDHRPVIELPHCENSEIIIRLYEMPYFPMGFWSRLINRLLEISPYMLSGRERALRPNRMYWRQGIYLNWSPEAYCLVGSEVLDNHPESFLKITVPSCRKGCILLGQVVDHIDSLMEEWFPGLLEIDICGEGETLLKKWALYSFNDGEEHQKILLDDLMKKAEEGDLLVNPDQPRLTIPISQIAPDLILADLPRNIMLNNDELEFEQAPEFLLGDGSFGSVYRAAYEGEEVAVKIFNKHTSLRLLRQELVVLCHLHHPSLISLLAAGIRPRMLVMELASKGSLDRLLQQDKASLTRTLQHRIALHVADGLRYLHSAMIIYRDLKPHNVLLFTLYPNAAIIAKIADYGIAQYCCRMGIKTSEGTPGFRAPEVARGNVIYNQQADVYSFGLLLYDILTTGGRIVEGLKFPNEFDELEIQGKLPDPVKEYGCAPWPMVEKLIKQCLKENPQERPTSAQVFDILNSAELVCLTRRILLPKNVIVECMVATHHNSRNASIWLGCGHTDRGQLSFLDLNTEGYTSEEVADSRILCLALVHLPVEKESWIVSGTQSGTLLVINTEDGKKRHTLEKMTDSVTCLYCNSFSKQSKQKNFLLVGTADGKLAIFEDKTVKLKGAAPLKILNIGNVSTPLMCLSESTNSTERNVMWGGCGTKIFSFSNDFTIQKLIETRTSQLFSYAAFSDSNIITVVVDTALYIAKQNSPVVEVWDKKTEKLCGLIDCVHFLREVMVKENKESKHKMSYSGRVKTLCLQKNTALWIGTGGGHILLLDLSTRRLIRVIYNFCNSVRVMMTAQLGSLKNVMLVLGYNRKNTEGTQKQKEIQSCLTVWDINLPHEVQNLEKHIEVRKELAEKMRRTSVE
SMILES,IC50 [1] [nM],Ki [2] [nM]
"COc1ccc(-c2nc(Nc3ccc4c(c3)NC(=O)CO4)c3[nH]ncc3n2)cc1 [Example #171, 6-((5-(4-methoxyphenyl)-1H-pyrazolo[4,3-d]pyrimidin-7-yl)amino)-2H-benzo[b][1,4]oxazin-3(4H)-one]",100 to 1000,10 to 100
"CC1(C)CNc2cc(Nc3nc(-c4cccs4)nc4cn[nH]c34)ccc2S1 [Example #173, 2,2-dimethyl-N-(5-(thiophen-2-yl)-1H-pyrazolo[4,3-d]pyrimidin-7-yl)-3,4-dihydro-2H-benzo[b][1,4]thiazin-6-amine]",100 to 1000,10 to 100
"COc1ccc(Nc2nc(-c3cccc(S(N)(=O)=O)c3)nc3cn[nH]c23)cc1OC [Example #183, 3-(7-((3,4-dimethoxyphenyl)amino)-1H-pyrazolo[4,3-d]pyrimidin-5-yl)benzenesulfonamide]",10 to 100,< 10
"CC(=O)N1CCN(c2ccc(Nc3nc(-c4nccs4)nc4cn[nH]c34)cc2)CC1 [Example #184, 1-(4-(4-((5-(thiazol-2-yl)-1H-pyrazolo[4,3-d]pyrimidin-7-yl)amino)phenyl)piperazin-1-yl)ethan-1-one]",10 to 100,< 10
"COc1ccc(Nc2nc(-c3nccs3)nc3cn[nH]c23)cc1OC [Example #185, N-(3,4-dimethoxyphenyl)-5-(thiazol-2-yl)-1H-pyrazolo[4,3-d]pyrimidin-7-amine]",10 to 100,10 to 100
"O=C1CCc2ccc(Nc3nc(-c4nccs4)nc4cn[nH]c34)cc2N1 [Example #186, 7-((5-(thiazol-2-yl)-1H-pyrazolo[4,3-d]pyrimidin-7-yl)amino)-3,4-dihydroquinolin-2(1H)-one]",100 to 1000,< 10
"COc1ccc(Nc2nc(-c3cccc(-c4nn[nH]n4)c3)nc3cn[nH]c23)cc1OC [Example #193, 5-(3-(2H-tetrazol-5-yl)phenyl)-N-(3,4-dimethoxyphenyl)-1H-pyrazolo[4,3-d]pyrimidin-7-amine]",100 to 1000,< 10
"COc1ccc(Nc2nc(-c3cccc(C(=O)O)c3)nc3cn[nH]c23)cc1OC [Example #194, 3-(7-((3,4-dimethoxyphenyl)amino)-1H-pyrazolo[4,3-d]pyrimidin-5-yl)benzoic acid]",100 to 1000,< 10
"O=C1CCc2ccc(Nc3nc(-c4cccc(C(=O)O)c4)nc4cn[nH]c34)cc2N1 [Example #195, 3-(7-((2-oxo-1,2,3,4-tetrahydroquinolin-7-yl)amino)-1H-pyrazolo[4,3-d]pyrimidin-5-yl)benzoic acid]",10 to 100,< 10
"O=C1CCc2ccc(Nc3nc(-c4cccc(-c5nn[nH]n5)c4)nc4cn[nH]c34)cc2N1 [Example #196, 7-((5-(3-(2H-tetrazol-5-yl)phenyl)-1H-pyrazolo[4,3-d]pyrimidin-7-yl)amino)-3,4-dihydroquinolin-2(1H)-one]",100 to 1000,< 10
"CN1CCN(c2ccc(Nc3nc(-c4cscn4)nc4cn[nH]c34)cc2)CC1 [Example #197, N-(4-(4-methylpiperazin-1-yl)phenyl)-5-(thiazol-4-yl)-1H-pyrazolo[4,3-d]pyrimidin-7-amine]",100 to 1000,< 10
"CC(=O)N1CCN(c2ccc(Nc3nc(-c4cscn4)nc4cn[nH]c34)cc2)CC1 [Example #198, 1-(4-(4-((5-(thiazol-4-yl)-1H-pyrazolo[4,3-d]pyrimidin-7-yl)amino)phenyl)piperazin-1-yl)ethan-1-one]",100 to 1000,< 10
"COc1ccc(Nc2nc(-c3cscn3)nc3cn[nH]c23)cc1OC [Example #199, N-(3,4-dimethoxyphenyl)-5-(thiazol-4-yl)-1H-pyrazolo[4,3-d]pyrimidin-7-amine]",10 to 100,10 to 100
"CN1CCN(c2ccc(Nc3nc(-c4cocn4)nc4cn[nH]c34)cc2)CC1 [Example #200, N-(4-(4-methylpiperazin-1-yl)phenyl)-5-(oxazol-4-yl)-1H-pyrazolo[4,3-d]pyrimidin-7-amine]",100 to 1000,< 10
"CC(=O)N1CCN(c2ccc(Nc3nc(-c4cocn4)nc4cn[nH]c34)cc2)CC1 [Example #201, 1-(4-(4-((5-(oxazol-4-yl)-1H-pyrazolo[4,3-d]pyrimidin-7-yl)amino)phenyl)piperazin-1-yl)ethan-1-one]",100 to 1000,< 10
"COc1ccc(Nc2nc(-c3cocn3)nc3cn[nH]c23)cc1OC [Example #202, N-(3,4-dimethoxyphenyl)-5-(oxazol-4-yl)-1H-pyrazolo[4,3-d]pyrimidin-7-amine]",100 to 1000,10 to 100
"CN1CCN(c2ccc(Nc3nc(-c4ncco4)nc4cn[nH]c34)cc2)CC1 [Example #203, N-(4-(4-methylpiperazin-1-yl)phenyl)-5-(oxazol-2-yl)-1H-pyrazolo[4,3-d]pyrimidin-7-amine]",100 to 1000,< 10

SMILES,IC50 [1] [nM],Ki [2] [nM]
"CC(=O)N1CCN(c2ccc(Nc3nc(-c4ncco4)nc4cn[nH]c34)cc2)CC1 [Example #204, 1-(4-(4-((5-(oxazol-2-yl)-1H-pyrazolo[4,3-d]pyrimidin-7-yl)amino)phenyl)piperazin-1-yl)ethan-1-one]",100 to 1000,< 10
"COc1ccc(Nc2nc(-c3ncco3)nc3cn[nH]c23)cc1OC [Example #205, N-(3,4-dimethoxyphenyl)-5-(oxazol-2-yl)-1H-pyrazolo[4,3-d]pyrimidin-7-amine]",100 to 1000,< 10
"O=C1CCc2ccc(Nc3nc(-c4cscn4)nc4cn[nH]c34)cc2N1 [Example #206, 7-((5-(thiazol-4-yl)-1H-pyrazolo[4,3-d]pyrimidin-7-yl)amino)-3,4-dihydroquinolin-2(1H)-one]",10 to 100,< 10
"O=C1CCc2ccc(Nc3nc(-c4cocn4)nc4cn[nH]c34)cc2N1 [Example #207, 7-((5-(oxazol-4-yl)-1H-pyrazolo[4,3-d]pyrimidin-7-yl)amino)-3,4-dihydroquinolin-2(1H)-one]",100 to 1000,< 10
"O=C1CCc2ccc(Nc3nc(-c4ncco4)nc4cn[nH]c34)cc2N1 [Example #208, 7-((5-(oxazol-2-yl)-1H-pyrazolo[4,3-d]pyrimidin-7-yl)amino)-3,4-dihydroquinolin-2(1H)-one]",100 to 1000,< 10
"CN1CCC(c2ccc(Nc3nc(-c4cccs4)nc4cn[nH]c34)cc2)CC1 [Example #209, N-(4-(1-methylpiperidin-4-yl)phenyl)-5-(thiophen-2-yl)-1H-pyrazolo[4,3-d]pyrimidin-7-amine]",100 to 1000,10 to 100
"O=C1CCCc2ccc(Nc3nc(-c4cccc(C(=O)O)c4)nc4cn[nH]c34)cc2N1 [Example #218, 3-(7-((2-oxo-2,3,4,5-tetrahydro-1H-benzo[b]azepin-8-yl)amino)-1H-pyrazolo[4,3-d]pyrimidin-5-yl)benzoic acid]",100 to 1000,10 to 100
"COc1ccc(Nc2nc(-c3ccccc3F)nc3cn[nH]c23)cc1OC [Example #232, N-(3,4-dimethoxyphenyl)-5-(2-fluorophenyl)-1H-pyrazolo[4,3-d]pyrimidin-7-amine]",100 to 1000,< 10
"Fc1ccccc1-c1nc(Nc2ccc(N3CCOCC3)cc2)c2[nH]ncc2n1 [Example #233, 5-(2-fluorophenyl)-N-(4-morpholinophenyl)-1H-pyrazolo[4,3-d]pyrimidin-7-amine]",100 to 1000,< 10
"COc1ccc(Nc2nc(-c3cccc(F)c3)nc3cn[nH]c23)cc1OC [Example #234, N-(3,4-dimethoxyphenyl)-5-(3-fluorophenyl)-1H-pyrazolo[4,3-d]pyrimidin-7-amine]",100 to 1000,< 10
"Fc1cccc(-c2nc(Nc3ccc(N4CCOCC4)cc3)c3[nH]ncc3n2)c1 [Example #235, 5-(3-fluorophenyl)-N-(4-morpholinophenyl)-1H-pyrazolo[4,3-d]pyrimidin-7-amine]",10 to 100,< 10
"CC(=O)N1CCN(c2ccc(Nc3nc(-c4cccc(S(N)(=O)=O)c4)nc4cn[nH]c34)cc2)CC1 [Example #237, 3-(7-((4-(4-acetylpiperazin-1-yl)phenyl)amino)-1H-pyrazolo[4,3-d]pyrimidin-5-yl)benzenesulfonamide]",100 to 1000,< 10
"NS(=O)(=O)c1cccc(-c2nc(Nc3ccc(N4CCOCC4)cc3)c3[nH]ncc3n2)c1 [Example #239, 3-(7-((4-morpholinophenyl)amino)-1H-pyrazolo[4,3-d]pyrimidin-5-yl)benzenesulfonamide]",100 to 1000,< 10
"CS(=O)(=O)c1cccc(-c2nc(Nc3ccc(N4CCOCC4)cc3)c3[nH]ncc3n2)c1 [Example #251, 5-(3-(methylsulfonyl)phenyl)-N-(4-morpholinophenyl)-1H-pyrazolo[4,3-d]pyrimidin-7-amine]",100 to 1000,< 10
"O=C1CCc2ccc(Nc3nc(-c4cnc5cc[nH]c5c4)nc4cn[nH]c34)cc2N1 [Example #257, 7-((5-(1H-pyrrolo[3,2-b]pyridin-6-yl)-1H-pyrazolo[4,3-d]pyrimidin-7-yl)amino)-3,4-dihydroquinolin-2(1H)-one]",100 to 1000,< 10
"CNS(=O)(=O)c1cccc(Nc2nc(-c3cccs3)nc3cn[nH]c23)c1 [Example #265, N-methyl-3-((5-(thiophen-2-yl)-1H-pyrazolo[4,3-d]pyrimidin-7-yl)amino)benzenesulfonamide]",100 to 1000,100 to 1000
